Publication PMC6346587, “Glucose 6-phosphate dehydrogenase 6-phosphogluconolactonase: characterization of the Plasmodium vivax enzyme and inhibitor studies” (Malaria Journal, 2019)
Substitutions are numbered along the chain they refer to. Numbers in names are those of the source.

Columns and labels:
[1] = tested on: P. falciparum 3D7[hGrx1-roGFP2] cytosolic glutathione-dependent redox potential; experiment: Cytosolic glutathione redox sensor hGrx1-roGFP2, confocal live cell imaging (CLSM); format: cell-based, Plasmodium falciparum; conditions: 24 h incubation, approximately 4 × EC50
Protocol: A Leica confocal system TCS SP5 inverted microscope equipped with the objective HCX PL APO 63.0 × 1.30 GLYC 37 °C UV connected to a 37 °C temperature chamber was used. The argon laser power was set to 20%; scanning was performed at 400 Hz frequency and at a 512 × 512 pixel resolution. The smart gain and smart offset were 950 V and −0.9%, respectively. With a sequential scan, the hGrx1–roGFP2 probe was excited at 405 nm and at 488 nm and emission was detected at 500–550 nm. Laser intensity was adjusted to match the full dynamic range of the probe to the dynamic range of the detector (405 nm: 10%, 488 nm: 4%). […] The Leica LAS AF Lite software for fluorescence analysis was used. The 405/488 nm ratio was calculated. The graphs were plotted using the GraphPad Prism 5 software (San Diego, CA, USA). For live cell imaging, only parasites showing fluorescent signals at both 405 and 488 nm excitation and an intact host cell were chosen.
The effect of ML304 and the anti-malarial drugs ATS and CQ as reference drugs on P. falciparum were investigated in 4 h and 24 h incubation experiments. […] For 4 h experiments, trophozoite stage parasites (26–30 h) of 3D7^[hGrx1–roGFP2] and NF54^[hGrx1–roGFP2] (6–8% parasitaemia) were magnetically enriched (Miltenyi Biotec, Germany), counted by using a Neubauer hemocytometer (Brand GmbH, Germany), and returned to cell culture (at 2.0 × 10^4 trophozoites μL^−1) for at least 1 h to recover. 1.0 × 10^6 cells in 100 μL cell culture medium were placed into LoBind tubes (Eppendorf, Hamburg, Germany) for 4 h incubation experiments. The parasites were treated with ML304 at 1 μM, 50 μM, and 100 μM, or with the anti-malarial drugs ATS and CQ at approximately 50 × EC50 for 4 h under cell culture conditions. Subsequently, free thiol groups were blocked with 2 mM N-ethylmaleimide (NEM) for 15 min at 37 °C. For 24 h experiments, a 5 mL culture (5% haematocrit, 6–8% parasitaemia) of ring stage parasites (6–10 h post invasion) was treated with ML304 at 1 μM, 5 μM, and 10 μΜ, or the anti-malarial drugs ATS and CQ at approximately 4 × EC50. Prior to enrichment, cysteines were blocked with 2 mM NEM for 15 min at 37 °C. For 4 h and 24 h experiments, cells were washed after incubation and resuspended in Ringer’s solution (122.5 mM NaCl, 5.4 mM KCl, 1.2 mM CaCl2, 0.8 mM MgCl2, 11 mM D-glucose, 25 mM HEPES, 1 mM NaH2PO4, pH 7.4). 50 μL of cells (1.0 × 10^6 cells 50^−1 μL^−1) were seeded onto poly-L-lysine-coated μ-Slides 18 well (flat) (Ibidi, Martinsried, Germany) and measured using CLSM (confocal laser scanning microscopy) with excitation wavelengths at 405 nm and 488 nm. […] Each experiment was carried out three times. Between 10 and 20 microscopy images were taken each time, resulting in at least 30 experimental values per concentration and incubation time. The obtained ratio values were normalized to the control value, which was set to 100. All experiments were carried out within 6 weeks after the appearance of transfectants. Mean and standard error of the mean (SEM) are shown. A one-way ANOVA test with 95% confidence intervals with the Dunnett’s multiple comparison test (GraphPad Prism 5.0) was applied for statistical analysis of significance (*p < 0.05; **p < 0.01; ***p < 0.001).

[2] = target: T1, recombinant hGrx1-roGFP2 (Homo sapiens, UniProt P35754); experiment: In vitro interaction with recombinant hGrx1-roGFP2 probe; format: biochemical; conditions: at the concentrations used in this study
T1 construct: made in house
Protocol: The sensor hGrx1–roGFP2 (human glutaredoxin 1-reduction–oxidation sensitive green fluorescent protein 2) was recently transiently expressed in 3D7 P. falciparum parasites by using the pARL1a(+) expression vector. Heterologous overexpression of hGrx1–roGFP2 for the evaluation of the in vitro interactions of ML304 and anti-malarial drugs with the recombinant redox probe was performed according to [35].
ML304 was used at concentrations of 10 nM to 1 mM in degassed standard reaction buffer (100 mM potassium phosphate, 1 mM EDTA, pH 7.0). […] The characterization of the in vitro interaction of hGrx1–roGFP2 with ML304 was performed according to Schuh et al..

[3] = tested on: P. falciparum 3D7; conditions: determined previously; cited from earlier work
[4] = target: PfPrx1a (Plasmodium falciparum); experiment: non-reducing SDS-PAGE with western blot; recombinant PfPrx1a (positive control) after incubation with GSSG, SDS-PAGE without DTT, anti-glutathione western blot and Ponceau staining
[5] = target: T2, PfGluPho (Plasmodium falciparum, UniProt Q8IKU0); conditions: ML276; read-out: IC50 against PfGluPho; cited from earlier work
T2 construct: made in house
T2 sequence (Q8IKU0 1-910): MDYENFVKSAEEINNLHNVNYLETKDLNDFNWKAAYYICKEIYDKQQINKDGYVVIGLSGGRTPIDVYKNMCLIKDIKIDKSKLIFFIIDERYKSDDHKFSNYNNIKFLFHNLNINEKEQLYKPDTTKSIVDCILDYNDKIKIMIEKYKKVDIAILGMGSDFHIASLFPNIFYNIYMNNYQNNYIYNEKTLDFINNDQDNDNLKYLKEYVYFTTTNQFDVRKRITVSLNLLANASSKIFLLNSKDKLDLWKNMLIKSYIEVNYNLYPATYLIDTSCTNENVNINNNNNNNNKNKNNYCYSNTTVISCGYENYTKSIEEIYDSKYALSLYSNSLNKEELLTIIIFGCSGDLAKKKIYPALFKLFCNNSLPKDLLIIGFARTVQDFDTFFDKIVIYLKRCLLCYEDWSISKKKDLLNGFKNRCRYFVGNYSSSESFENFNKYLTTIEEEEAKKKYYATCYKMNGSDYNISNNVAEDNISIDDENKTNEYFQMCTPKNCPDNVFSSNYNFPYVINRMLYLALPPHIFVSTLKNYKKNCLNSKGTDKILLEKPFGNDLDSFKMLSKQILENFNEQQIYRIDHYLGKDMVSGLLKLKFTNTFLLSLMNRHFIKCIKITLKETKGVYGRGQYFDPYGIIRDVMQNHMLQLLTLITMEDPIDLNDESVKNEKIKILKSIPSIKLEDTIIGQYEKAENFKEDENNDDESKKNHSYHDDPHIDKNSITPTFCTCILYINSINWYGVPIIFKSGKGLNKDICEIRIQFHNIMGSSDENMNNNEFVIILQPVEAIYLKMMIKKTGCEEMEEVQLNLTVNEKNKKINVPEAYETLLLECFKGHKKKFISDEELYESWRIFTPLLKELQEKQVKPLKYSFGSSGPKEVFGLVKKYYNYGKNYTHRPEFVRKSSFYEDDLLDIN

[6] = target: T3, hG6PD (Homo sapiens, UniProt P11413); conditions: ML276; read-out: IC50 against hG6PD; cited from earlier work
T3 construct: made in house
T3 sequence (P11413 whole entry): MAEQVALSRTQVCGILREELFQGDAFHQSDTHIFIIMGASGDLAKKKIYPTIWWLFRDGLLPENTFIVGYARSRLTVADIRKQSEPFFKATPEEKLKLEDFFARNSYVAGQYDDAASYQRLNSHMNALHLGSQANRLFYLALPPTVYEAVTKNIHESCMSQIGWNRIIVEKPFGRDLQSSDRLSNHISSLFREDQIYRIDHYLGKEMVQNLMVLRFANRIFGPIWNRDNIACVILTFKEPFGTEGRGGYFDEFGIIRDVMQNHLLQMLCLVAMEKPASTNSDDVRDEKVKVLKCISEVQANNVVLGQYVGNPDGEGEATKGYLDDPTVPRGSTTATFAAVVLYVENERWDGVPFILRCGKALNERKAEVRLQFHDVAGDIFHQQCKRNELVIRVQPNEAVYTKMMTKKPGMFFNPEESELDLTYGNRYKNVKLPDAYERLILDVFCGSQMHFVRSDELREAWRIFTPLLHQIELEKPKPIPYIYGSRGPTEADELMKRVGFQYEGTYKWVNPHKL

[7] = target: the molecule itself; experiment: SEC; size exclusion chromatography of purified PfGluPho mutants under reducing conditions
[8] = target: the molecule itself; experiment: SEC; gel filtration chromatography of purified PvG6PD under reducing conditions; single peak of approximately 389 kDa

Molecule: C[C@@H]1CC[C@H]2[C@@H](C)C(=O)O[C@@H]3O[C@@]4(C)CC[C@@H]1[C@]32OO4 [ATS, artemisinin]
- Increase of redox ratio (405/488 nm) [1]: hardly affected
- Direct interaction with recombinantly purified hGrx1-roGFP2 probe [2]: excluded a direct interaction
- EC50 [3]: 4.4 nM

Molecule: PfPrx1a (enzyme)
- stoichiometry N [4]: 2

Molecule: CCN(CC)CCCC(C)Nc1ccnc2cc(Cl)ccc12 (centres unmarked) [CQ, chloroquine]
- Increase of redox ratio (405/488 nm) [1]: 1.5 fold
- Direct interaction with recombinantly purified hGrx1-roGFP2 probe [2]: excluded a direct interaction
- EC50 [3]: 8.6 nM

Molecule: CCN1CCC[C@@H]1CNC(=O)c1ccc2c(c1)NC(=O)/C(=C/c1ccccc1F)S2 [ML276, (R, Z)-N-((1-ethylpyrrolidin-2-yl)methyl)-2-(2-fluorobenzylidene)-3-oxo-3,4-dihydro-2H-benzo[b][1,4]thiazine-6-carboxamide]
- IC50 [5]: 890 nM
- IC50 [6]: > 80000 nM

B1: PfGluPho L395F (enzyme)
chain: T2 sequence (Q8IKU0 1-910) with L395F
notes: source: E. coli, purified (size exclusion chromatography under reducing conditions); produced as described previously [14]
- stoichiometry N [7]: 4

B2: PfGluPho S900E (phosphomimetic mutant) (enzyme)
chain: T2 sequence (Q8IKU0 1-910) with S900E
notes: as for B1
- stoichiometry N [7]: 4

B3: PfGluPho S899E (phosphomimetic mutant) (enzyme)
chain: T2 sequence (Q8IKU0 1-910) with S899E
notes: as for B1
- stoichiometry N [7]: 4

B4: PfGluPho F507L (enzyme)
chain: T2 sequence (Q8IKU0 1-910) with F507L
notes: as for B1
- stoichiometry N [7]: 4

B5: Plasmodium vivax glucose 6-phosphate dehydrogenase (PvG6PD), C-terminal part (aa 310-927) of PvGluPho (domain or fragment, UniProt A5K3M1 310-927, looked up)
chain: LNRRECLTIIVFGCSGDLAKKKIYPAIFKLFCNKRLPKDLLIVGFARTAQSFDSFFDKIVGYLKRCLHSYEDLSLTQKKDLLNCFKNKCRYYIGDYSSSESFERFNKYLTQLERENLIGTAPTSWAAAAGNASFANDTDKVEHHPDEAILAKGTGAATPGEAPGGANGPATHGEAHGGANGLSTPMQGKAVPTDDTSDEGHSGANHPFAINRILYLALPPHIFVSTLKNYKKNCQNGNGTDKILLEKPFGKDLQTFKVLSKQILENFNEEHIYRIDHYLGKDMVSGLLKLKFTNTFLLSLMNRHFIKCIKITLKETKGVYGRGQYFDPYGIIRDVMQNHMLQLLALITMEDPIDLNDESVKNEKIKILKCIQSIKLDNTIIGQYVKSENYQEEKNLSAPPSDDHPVDESKRNHSYHDDPHIDSNSITPTFCTCILYINSINWYGVPIIFKAGKGLNKDICEIRLQFHNIMGSSDESMYNNEFVIILQPVEVIYLKMMIKKTGCEEMEEVQLNLTVNHKNKKNYVPEAYETLLLECFRGFKKKFISDEELYESWRIFTPLLNELQEKKVQPLKYPFGSSGPKEVYDLVKKYYNYGKNYANTPAFVRKSSFYEDDLLDIN
notes: glucose 6-phosphate dehydrogenase 6-phosphogluconolactonase (PvGluPho) of Plasmodium vivax, PlasmoDB PVX_117790; G6PD part, aa 310-927 (bp 930-2784); Calculated mass of the His-tagged protein 71.9 kDa; also called P. vivax G6PD; source: E. coli M15 with pRAREII (pQE30 vector), purified (Ni-NTA, size exclusion chromatography); not shown: His6, N-terminal, kept
- stoichiometry N [8]: 6
